According to US12415794B2 (Edgewise Therapeutics, Inc., priority 2018, dated 2025):

Key:
[1] = biological target: skeletal myofibrils (myosin ATPase); test: Skeletal Myofibril ATPase Assay; type: biochemical
In short: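 Skeletal myofibril ATPase measured by PK-LDH coupled NADH depletion, absorbance 340 nm read every 1.5-2 min over 45 min. Max−min rate normalized to 1% DMSO vehicle as 100%; IC50 from four-parameter logistic fit with bottom ≥0. Cardiac myofibrils used as counter-screen.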

[2] = biological target: T1, cardiac myofibrils (myosin ATPase); test: Cardiac Myofibril ATPase Assay (counter screen); type: biochemical; settings: myofibrils 1.0 mg/mL, KCl omitted
T1 construct: frozen myofibril pellets obtained from cardiac tissue; from tissue
T1 sequence (P12883 whole entry): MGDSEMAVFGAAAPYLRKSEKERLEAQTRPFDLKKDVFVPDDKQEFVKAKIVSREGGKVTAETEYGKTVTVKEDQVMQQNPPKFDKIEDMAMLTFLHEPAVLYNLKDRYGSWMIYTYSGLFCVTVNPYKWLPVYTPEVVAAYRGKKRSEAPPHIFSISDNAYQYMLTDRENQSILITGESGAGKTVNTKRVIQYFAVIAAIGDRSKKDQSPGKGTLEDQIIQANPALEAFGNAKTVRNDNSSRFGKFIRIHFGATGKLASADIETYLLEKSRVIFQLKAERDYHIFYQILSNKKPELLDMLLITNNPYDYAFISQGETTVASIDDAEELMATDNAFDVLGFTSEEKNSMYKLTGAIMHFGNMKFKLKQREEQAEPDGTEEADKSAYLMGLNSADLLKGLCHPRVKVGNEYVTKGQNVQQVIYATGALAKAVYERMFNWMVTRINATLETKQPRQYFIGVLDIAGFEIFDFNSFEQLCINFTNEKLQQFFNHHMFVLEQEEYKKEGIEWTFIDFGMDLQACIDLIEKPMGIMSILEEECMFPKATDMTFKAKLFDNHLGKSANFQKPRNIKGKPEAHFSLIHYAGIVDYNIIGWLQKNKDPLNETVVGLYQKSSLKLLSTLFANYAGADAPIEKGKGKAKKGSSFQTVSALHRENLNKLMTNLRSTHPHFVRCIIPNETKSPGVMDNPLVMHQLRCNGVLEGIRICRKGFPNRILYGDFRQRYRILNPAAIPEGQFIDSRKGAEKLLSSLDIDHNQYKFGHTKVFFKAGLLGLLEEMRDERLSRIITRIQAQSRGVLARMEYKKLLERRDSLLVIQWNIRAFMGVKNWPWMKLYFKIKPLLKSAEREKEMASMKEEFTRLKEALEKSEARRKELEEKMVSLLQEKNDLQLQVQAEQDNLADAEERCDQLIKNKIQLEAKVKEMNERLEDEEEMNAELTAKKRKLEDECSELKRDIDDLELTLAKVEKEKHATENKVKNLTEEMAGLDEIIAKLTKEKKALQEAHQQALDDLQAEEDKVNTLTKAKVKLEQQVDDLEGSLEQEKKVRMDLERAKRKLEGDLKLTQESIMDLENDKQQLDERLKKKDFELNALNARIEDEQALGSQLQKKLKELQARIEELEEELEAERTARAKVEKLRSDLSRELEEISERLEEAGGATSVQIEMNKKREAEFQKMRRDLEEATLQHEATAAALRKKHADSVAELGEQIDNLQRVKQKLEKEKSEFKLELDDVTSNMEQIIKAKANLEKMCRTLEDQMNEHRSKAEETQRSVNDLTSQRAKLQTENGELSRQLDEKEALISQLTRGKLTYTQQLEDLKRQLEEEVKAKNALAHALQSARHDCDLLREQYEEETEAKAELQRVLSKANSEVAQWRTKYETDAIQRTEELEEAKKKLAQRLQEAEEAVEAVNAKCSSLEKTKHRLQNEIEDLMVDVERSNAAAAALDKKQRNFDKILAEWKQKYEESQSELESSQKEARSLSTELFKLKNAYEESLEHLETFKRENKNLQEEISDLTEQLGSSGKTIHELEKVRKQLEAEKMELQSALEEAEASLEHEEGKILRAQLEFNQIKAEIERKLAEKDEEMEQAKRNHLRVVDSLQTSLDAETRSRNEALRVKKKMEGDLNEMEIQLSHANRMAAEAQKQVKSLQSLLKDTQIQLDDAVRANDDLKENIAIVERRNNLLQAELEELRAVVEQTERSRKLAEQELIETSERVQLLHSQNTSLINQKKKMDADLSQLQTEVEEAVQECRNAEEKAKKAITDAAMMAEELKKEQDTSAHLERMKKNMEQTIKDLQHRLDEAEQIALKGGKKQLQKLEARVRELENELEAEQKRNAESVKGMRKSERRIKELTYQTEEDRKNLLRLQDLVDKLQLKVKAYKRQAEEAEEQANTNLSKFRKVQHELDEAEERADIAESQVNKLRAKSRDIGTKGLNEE
T1 sequence (P08590 whole entry partner): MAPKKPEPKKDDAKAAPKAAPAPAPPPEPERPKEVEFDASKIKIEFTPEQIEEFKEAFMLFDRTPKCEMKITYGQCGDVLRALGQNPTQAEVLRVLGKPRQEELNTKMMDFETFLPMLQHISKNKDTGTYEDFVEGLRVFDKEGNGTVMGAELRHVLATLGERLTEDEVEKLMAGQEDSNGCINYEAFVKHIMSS
T1 sequence (P10916 whole entry partner): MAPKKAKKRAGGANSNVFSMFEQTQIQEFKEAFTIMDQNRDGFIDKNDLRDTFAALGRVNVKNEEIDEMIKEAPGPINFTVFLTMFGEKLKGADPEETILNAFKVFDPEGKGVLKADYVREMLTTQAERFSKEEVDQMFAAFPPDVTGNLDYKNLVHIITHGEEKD
In short: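 Frozen cardiac myofibrils at 1.0 mg/mL final, KCl omitted, in a PK-LDH coupled ATPase assay; ADP production tracked as NADH loss by absorbance at 340 nm. Inhibition taken as reduced rate relative to vehicle controls, with IC50 derived.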

| Compound | IC50 ([1]; Table 4C) [µM] | IC50 ([2]; Table 5C) [µM] | other results |
| --- | --- | --- | --- |
| CCNC(=O)Cn1nc(-c2ccc(OC(C)(F)F)cc2)ccc1=O [II-1, 2-(3-(4-(1,1-difluoroethoxy)phenyl)-6-oxopyridazin-1(6H)-yl)-N-ethylacetamide] |  |  | IC50 ([1]; Table 4B): < 10 µM; IC50 ([2]; Table 5B): 10 to 100 µM |
| O=C(Cn1nc(-c2cnc(OCCOC(F)(F)F)nc2)ccc1=O)NC1CCC1 [Compound I-72, N-cyclobutyl-2-(6-oxo-3-(2-(2-(trifluoromethoxy)ethoxy)pyrimidin-5-yl)pyridazin-1(6H)-yl)acetamide] |  |  | IC50 ([1]; Table 4A): < 10 µM; IC50 ([2]; Table 5A): > 100 µM |
| O=C(Cn1nc(-c2cnc(OCC(F)(F)F)nc2)ccc1=O)NC1CCC1 [Compound I-71, N-cyclobutyl-2-(6-oxo-3-(2-(2,2,2-trifluoroethoxy)pyrimidin-5-yl)pyridazin-1(6H)-yl)acetamide] |  |  | IC50 ([1]; Table 4A): < 10 µM; IC50 ([2]; Table 5A): > 100 µM |
| CCNC(=O)Cn1nc(-c2ccc(OC3COC3)nc2)ccc1=O [Compound I-25, N-ethyl-2-(3-(6-(oxetan-3-yloxy)pyridin-3-yl)-6-oxopyridazin-1(6H)-yl)acetamide] |  |  | IC50 ([1]; Table 4A): > 100 µM; IC50 ([2]; Table 5A): > 100 µM |
| CCNC(=O)Cn1nc(-c2ccc(NC(C)=O)cc2)ccc1=O [II-2, 2-(3-(4-acetamidophenyl)-6-oxopyridazin-1(6H)-yl)-N-ethylacetamide] |  |  | IC50 ([1]; Table 4B): < 10 µM; IC50 ([2]; Table 5B): > 100 µM |
| CC(C)NC(=O)Cn1nc(-c2ccccc2)ccc1=O [IIIc-63, N-isopropyl-2-(6-oxo-3-phenylpyridazin-1(6H)-yl)acetamide] | > 100 | > 100 |  |
| CCNC(=O)Cn1nc(-c2ccc(OCC3COC3)nc2)ccc1=O [Compound I-22, N-ethyl-2-(3-(6-(oxetan-3-ylmethoxy)pyridin-3-yl)-6-oxopyridazin-1(6H)-yl)acetamide] |  |  | IC50 ([1]; Table 4A): 10 to 100 µM; IC50 ([2]; Table 5A): > 100 µM |
| CCNC(=O)Cn1nc(-c2ccc(NC3CCC3)nc2)ccc1=O [Compound I-62, 2-(3-(6-(cyclobutylamino)pyridin-3-yl)-6-oxopyridazin-1(6H)-yl)-N-ethylacetamide] |  |  | IC50 ([1]; Table 4A): < 10 µM; IC50 ([2]; Table 5A): > 100 µM |
| O=C(Cn1nc(-c2ccc(OCC(F)(F)F)cc2)ccc1=O)N1CC(c2ccccc2)C1 [II-22, 2-(2-oxo-2-(3-phenylazetidin-1-yl)ethyl)-6-(4-(2,2,2-trifluoroethoxy)phenyl)pyridazin-3(2H)-one] |  |  | IC50 ([1]; Table 4B): < 10 µM; IC50 ([2]; Table 5B): > 100 µM |
| COc1ccc(-c2ccc(=O)n(CC(=O)Nc3cccc(C)n3)n2)cc1 [IIIb-59, 2-(3-(4-methoxyphenyl)-6-oxopyridazin-1(6H)-yl)-N-(6-methylpyridin-2-yl)acetamide] | > 100 | > 100 |  |
| CCNC(=O)Cn1nc(-c2ccc(N3CC4(COC4)C3)nc2)ccc1=O [Compound I-31, 2-(3-(6-(2-oxa-6-azaspiro[3.3]heptan-6-yl)pyridin-3-yl)-6-oxopyridazin-1(6H)-yl)-N-ethylacetamide] |  |  | IC50 ([1]; Table 4A): > 100 µM; IC50 ([2]; Table 5A): > 100 µM |
| CCNC(=O)Cn1nc(-c2ccc(CC(F)(F)F)nc2)ccc1=O [Compound I-37, N-ethyl-2-(6-oxo-3-(6-(2,2,2-trifluoroethyl)pyridin-3-yl)pyridazin-1(6H)-yl)acetamide] |  |  | IC50 ([1]; Table 4A): 10 to 100 µM; IC50 ([2]; Table 5A): > 100 µM |
| CCCCNC(=O)Cn1nc(-c2ccc(OC(F)F)cc2)ccc1=O [II-17, N-butyl-2-(3-(4-(difluoromethoxy)phenyl)-6-oxopyridazin-1(6H)-yl)acetamide] |  |  | IC50 ([1]; Table 4B): 10 to 100 µM; IC50 ([2]; Table 5B): > 100 µM |
| COc1ccc(-c2ccc(=O)n(CC(=O)NCc3ccccc3Cl)n2)cc1OC [IIIb-40, N-(2-chlorobenzyl)-2-(3-(3,4-dimethoxyphenyl)-6-oxopyridazin-1(6H)-yl)acetamide] | > 100 | > 100 |  |
| COc1ccc(-c2ccc(=O)n(CC(=O)NCc3ccccc3)n2)c(F)c1 [IIIb-54, N-benzyl-2-(3-(2-fluoro-4-methoxyphenyl)-6-oxopyridazin-1(6H)-yl)acetamide] | > 100 | > 100 |  |

Now from value to compound, other results behind:

| IC50 ([1]; Table 4C) [µM] | IC50 ([2]; Table 5C) [µM] | Compound | other results |
| --- | --- | --- | --- |
| 10 to 100 | > 100 | COc1ccc(-c2ccc(=O)n(CC(=O)NC(C)c3ccccc3Cl)n2)cc1 (stereo not shown) [IIIa-25, N-(1-(2-chlorophenyl)ethyl)-2-(3-(4-methoxyphenyl)-6-oxopyridazin-1(6H)-yl)acetamide] |  |
| < 10 | > 100 | CC[C@H](C)NC(=O)Cn1nc(-c2ccc(C)cc2)ccc1=O [IIIc-2, (S)-N-(sec-butyl)-2-(6-oxo-3-(p-tolyl)pyridazin-1(6H)-yl)acetamide] |  |
| < 10 | > 100 | COc1ccc(-c2ccc(=O)n(CC(=O)Nc3cccc4[nH]ccc34)n2)c(F)c1 [IIIb-2, 2-(3-(2-fluoro-4-methoxyphenyl)-6-oxopyridazin-1(6H)-yl)-N-(1H-indol-4-yl)acetamide] |  |
| > 100 | > 100 | O=C(Cn1nc(-c2ccccc2)ccc1=O)NC1CC1 [IIIc-65, N-cyclopropyl-2-(6-oxo-3-phenylpyridazin-1(6H)-yl)acetamide] |  |
| < 10 | 10 to 100 | O=C(Cn1nc(-c2ccc(Cl)cc2)ccc1=O)Nc1ccccc1Cl [IIIc-28, N-(2-chlorophenyl)-2-(3-(4-chlorophenyl)-6-oxopyridazin-1(6H)-yl)acetamide] |  |
| > 100 | > 100 | COc1ccc(-c2ccc(=O)n(CC(=O)NCc3ccc(F)cc3)n2)cc1 [IIIb-50, N-(4-fluorobenzyl)-2-(3-(4-methoxyphenyl)-6-oxopyridazin-1(6H)-yl)acetamide] |  |
| > 100 | > 100 | COc1ccc(-c2ccc(=O)n(CC(=O)NCc3cccc(F)c3)n2)c(F)c1 [IIIb-55, 2-(3-(2-fluoro-4-methoxyphenyl)-6-oxopyridazin-1(6H)-yl)-N-(3-fluorobenzyl)acetamide] |  |
| < 10 | > 100 | COc1ccc(-c2ccc(=O)n(CC(=O)NCc3ccccc3Cl)n2)cc1 [IIIb-1, N-(2-chlorobenzyl)-2-(3-(4-methoxyphenyl)-6-oxopyridazin-1(6H)-yl)acetamide] |  |
| 10 to 100 | > 100 | CC(C)CNC(=O)Cn1nc(-c2ccc(Cl)cc2)ccc1=O [IIIc-35, 2-(3-(4-chlorophenyl)-6-oxopyridazin-1(6H)-yl)-N-isobutylacetamide] |  |
| < 10 | > 100 | COc1ccc(-c2ccc(=O)n(CC(=O)NCc3ccc(Cl)cc3Cl)n2)cc1 [IIIa-12, N-(2,4-dichlorobenzyl)-2-(3-(4-methoxyphenyl)-6-oxopyridazin-1(6H)-yl)acetamide] |  |
| < 10 | > 100 | COc1ccc(-c2ccc(=O)n(CC(=O)NCc3ccccc3Cl)n2)c(F)c1 [IIIa-13, N-(2-chlorobenzyl)-2-(3-(2-fluoro-4-methoxyphenyl)-6-oxopyridazin-1(6H)-yl)acetamide] |  |
| 10 to 100 | > 100 | COc1ccc(-c2ccc(=O)n(CC(=O)NCc3ccc(Cl)cc3)n2)cc1 [IIIb-31, N-(4-chlorobenzyl)-2-(3-(4-methoxyphenyl)-6-oxopyridazin-1(6H)-yl)acetamide] |  |
| 10 to 100 | > 100 | COc1ccc(-c2ccc(=O)n(CC(=O)NC3CC3)n2)cc1 [IIIb-22, N-cyclopropyl-2-(3-(4-methoxyphenyl)-6-oxopyridazin-1(6H)-yl)acetamide] |  |
| 10 to 100 | 10 to 100 | COc1ccc(-c2ccc(=O)n(CC(=O)NC(C)CCc3ccccc3)n2)cc1 (stereo not shown) [IIIb-30, 2-(3-(4-methoxyphenyl)-6-oxopyridazin-1(6H)-yl)-N-(4-phenylbutan-2-yl)acetamide] |  |
| 10 to 100 | > 100 | COc1ccc(-c2ccc(=O)n(CC(=O)NCc3ccccc3OC)n2)cc1 [IIIb-21, N-(2-methoxybenzyl)-2-(3-(4-methoxyphenyl)-6-oxopyridazin-1(6H)-yl)acetamide] |  |
| 10 to 100 | > 100 | COc1ccc(-c2ccc(=O)n(CC(=O)NCc3ccccc3Cl)n2)cc1C [IIIa-23, N-(2-chlorobenzyl)-2-(3-(4-methoxy-3-methylphenyl)-6-oxopyridazin-1(6H)-yl)acetamide] |  |
| < 10 | > 100 | COc1ccc(-c2ccc(=O)n(CC(=O)NC3Cc4ccccc4C3)n2)cc1 [IIIb-8, N-(2,3-dihydro-1H-inden-2-yl)-2-(3-(4-methoxyphenyl)-6-oxopyridazin-1(6H)-yl)acetamide] |  |
| 10 to 100 | > 100 | COc1ccc(-c2ccc(=O)n(CC(=O)Nc3ncccc3C)n2)cc1 [IIIb-27, 2-(3-(4-methoxyphenyl)-6-oxopyridazin-1(6H)-yl)-N-(3-methylpyridin-2-yl)acetamide] |  |
| < 10 | > 100 | O=C(Cn1nc(-c2ccc(Cl)cc2)ccc1=O)Nc1ccc2[nH]ccc2c1 [IIIc-22, 2-(3-(4-chlorophenyl)-6-oxopyridazin-1(6H)-yl)-N-(1H-indol-5-yl)acetamide] |  |
| 10 to 100 | > 100 | COc1ccc(-c2ccc(=O)n(CC(=O)NCc3ccccc3Cl)n2)c(C)c1 [IIIa-22, N-(2-chlorobenzyl)-2-(3-(4-methoxy-2-methylphenyl)-6-oxopyridazin-1(6H)-yl)acetamide] |  |
| < 10 | > 100 | COc1ccc(-c2ccc(=O)n(CC(=O)Nc3ccc4c(c3)OCCO4)n2)cc1 [IIIb-16, N-(2,3-dihydrobenzo[b][1,4]dioxin-6-yl)-2-(3-(4-methoxyphenyl)-6-oxopyridazin-1(6H)-yl)acetamide] |  |
| 10 to 100 | > 100 | O=C(Cn1nc(-c2ccccc2)ccc1=O)Nc1cccc2[nH]ccc12 [IIIc-50, N-(1H-indol-4-yl)-2-(6-oxo-3-phenylpyridazin-1(6H)-yl)acetamide] |  |
| < 10 | > 100 | COc1ccc(-c2ccc(=O)n(CC(=O)NCc3cccc(C)c3)n2)cc1 [IIIa-10, 2-(3-(4-methoxyphenyl)-6-oxopyridazin-1(6H)-yl)-N-(3-methylbenzyl) acetamide] |  |
